Assay results from US20040106685A1, “Method of preventing and/or treating asthma using PBPB” (COUNCIL OF SCIENTIFIC & INDUSTRIAL RESEARCH, priority 2002, published 2004).

Tests used:
Format in all cases: in vivo, BALB/c male mice
[1] = test system: eosinophils in BAL fluid; assay: Eosinophils in BAL fluid by flow cytometry
Protocol: (§1) In another embodiment of the present invention, wherein after testing the compound for the preventive as well as for therapeutic values in intact conscious mice, mice were sacrificed for collecting the blood and bronchoalveolar lavage (bat) fluid to measure the levels of IgE, cytokines 11-4, IL-5 and IFN-y and homophile. Ovalbumin specific IgE levels m the sera and the levels of IL-4, IL-5 and IFN-y in the BAL fluid were measured by Elisa kits. The prevalence of eosinophils was determined in BAL fluid by flow cytometry.
(§2) BALB/c male mice, eight-ten weeks old, weighing 18-22 grams were acclimatized for one week under the laboratory conditions. Mice were sensitized by injecting intraperitoneally 0.2 ml of saline containing 10 micrograms ovalbumin (ova) (sigma, USA) adsorbed on 2 mg aluminum hydroxide gel on days 0, 7 and 14 followed by aerosol inhalation for 5 consecutive days, from day 19 to 23 with 2% ova (in saline w/v) for 30 minutes daily. Aerosol challenge was performed by placing mice in Plexiglas chamber (20×20×10 cm^3) and ova or saline alone was aerosolized using a nebulizer (devilbiss, model 645, USA) at an airflow rate of 7 litre/minute, sham-sensitized mice received 0.2 ml of saline containing only 2 mg al(oh)3 on days, 0, 7 and 14 followed by inhalation of aerosol of saline without ova for 5 consecutive days.
(§3) The compound PBPB (sigma, USA) was dissolved in absolute alcohol (10 mg/ml). PBPB (20ul by volume) was given orally to each mouse. […] Initial measurements of specific airway conductance and airway reactivity of all the animals were carried out before starting the experiment ovalbumin induced airway constriction and airway reactivity were measured after sensitization protocol was over the measurements were done as described below (example 3,4 and 5). […]
The levels of eosinophils in BAL fluid were detected by flowcytometry (facsvantage, Becton Dickinson, USA) using the method described by bedner et al (1999). The cells were gated on the basis of the size and fluorescence (FSC versus FL 1) and the percentage of the gated cells was determined by cell quest software. […]

[2] = test system: mouse model of asthma (ova sensitized mice); assay: Ova-induced airway constriction (fall of SGaw) in sensitized mice, dual-chamber whole body plethysmography
Protocol: as §2
(§4) The compound PBPB (sigma, USA) was dissolved in absolute alcohol (10 mg/ml). PBPB (20ul by volume) was given orally to each mouse. To evaluate the effect of PBPB on sensitization and the development of impaired airway sensitivity (preventive effect, FIG. 1a), five groups (six mice in each) of mice were used. One group was sham-sensitized control and another group was kept as sensitized control. The remaining three groups were given orally three different concentrations of PBPB (0.1, and 10 mg/kg body weight) daily starting from first to the last day of the sensitization the sham-sensitized and sensitized control mice were given only vehicle (20 ul alcohol) in a similar fashion. Initial measurements of specific airway conductance and airway reactivity of all the animals were carried out before starting the experiment ovalbumin induced airway constriction and airway reactivity were measured after sensitization protocol was over the measurements were done as described below (example 3,4 and 5).
(§5) To examine the therapeutic effect of PBPB on sensitized mice (therapeutic effect, FIG. ib), mice were sensitized as before without PBPB treatment and airway constriction to ova and airway reactivity to methacholine were measured as described below animals showing at least 40% fall in specific airway conductance to ova aerosol challenge were selected for this study the sensitized mice were randomly divided into 4 groups of 6 mice in each group three groups of mice were given daily three different concentrations of PBPB in 20 ul of alcohol adjusted to contain PBPB in a dose of 0.1, and 10 mg/kg body weight respectively for week fourth group was fed only 20 ul alcohol for one week to be used as sensitized control airway constriction and airway reactivity were again measured thereafter.
Airway calibre was measured in the term of specific airway conductance (SGaw). SGaw is a measure of the airway caliber and was estimated using a dual-chamber whole body plethysmograph (Agrawal, 1981). The dual-chamber whole body plethysmograph was designed in our laboratory to suit the size of mouse (FIG. 2). The change in the box pressure in response to breathing of the housed mouse was determined with a transducer (validyne mp 45+2 cmh20) and carrier amplifier (validyne model CD 15 carrier demodulator) that were connected to the x-channel of an oscilloscope Tektronix, model 6116, USA). […]
Animals were acclimatized in the body box in the beginning of the study and at the time of recording the loop, each individual mouse was housed for 10 minutes to set the basal loop correctly. Values of the slopes were recorded on getting at least three similar loops. […]

[3] = test system: IFN-gamma, IL-4 and IL-5; assay: Cytokines IFN-gamma, IL-4 and IL-5 in BAL fluid by Elisa kits; details: for IL-4 in BAL fluid / IL-5 in BAL fluid / IFN-γ in BAL fluid: mean SEM, n = 4; for IL-4 in BAL fluid: sensitized 143.0 ± 3.0; for IL-5 in BAL fluid: sensitized 158.7 ± 22.5; for IFN-γ in BAL fluid: sensitized 162.0 ± 45.2; for IFN-γ:IL-4 ratio in BAL fluid: sensitized 1.1
Protocol: as §1, §2, §4, §5
The cytokines IFN-gamma, IL-4 and IL-5 were measured in the BAL fluid by enzyme-linked ImmunoSorbent assay (Elisa) kits (BD pharmingen, USA) as per the manufacturer's protocol.

[4] = test system: mouse model of asthma (ova sensitized mice); assay: Airway reactivity to methacholine (MCh PD35) in sensitized mice
Protocol: as §2
as §4, with “The remaining three groups were given orally three different concentrations of PBPB (0.1, and 10 mg/kg body weight) daily starting from first to the last day of the sensitization the sham-sensitized and sensitized control mice were given only vehicle (20 ul alcohol) in a similar fashion.” left out
as §5
Airway calibre was measured in the term of specific airway conductance (SGaw). […] The change in the box pressure in response to breathing of the housed mouse was determined with a transducer (validyne mp 45+2 cmh20) and carrier amplifier (validyne model CD 15 carrier demodulator) that were connected to the x-channel of an oscilloscope Tektronix, model 6116, USA). […]

[5] = test system: Ova-specific IgE; assay: Serum ova-specific IgE levels by Elisa
Protocol: as §1, §2, §3
Serum IgE levels were measured in all the groups of mice by Elisa (FIG. 7). Ova-specific IgE levels were measured by enzyme linked immuno sorbent assay (Elisa). […]

[6] = PBPB 1 mg/kg body weight after sensitization
[7] = PBPB 1 mg/kg body weight during sensitization

O=C(CBr)c1ccc(Br)cc1 [PBPB, parabromophenacyl bromide]
effective dose ([1]; administration to mice during and after sensitization, inhibition of inflammation (eosinophils in BAL fluid)): 1 mg/kg body weight | levels of eosinophils in BAL fluid ([1]; preventive: oral 1 mg/kg body weight during sensitization): prevented the rise in the eosinophils levels | levels of eosinophils in BAL fluid ([1]; therapeutic: 1 mg/kg body weight in already sensitized mice, p<0.01 vs vehicle treated sensitized mice): reduced the levels of eosinophils significantly | fall of SGaw level from basal level after ova challenge ([2]; preventive: oral 0.1 mg PBPB/kg body weight during sensitization, sensitized control fall 48%): 17% | fall of SGaw after ova challenge, effect of further dose increase ([2]; preventive: oral 'lo mg/kg body weight' during sensitization): did not show any additional effect | fall of SGaw from basal levels after ova challenge ([2]; preventive: oral 'mg PBPB/kg body weight' (dose figure missing) during sensitization, sensitized control fall 48%): 4% | SGaw levels recovered, of basal SGaw levels ([2]; therapeutic: oral for one week to already sensitized mice, 10 mg PBPB/kg body weight): 96% | SGaw levels recovered, of normal basal levels ([2]; therapeutic: oral for one week to already sensitized mice, dose 'mg/kg body weight' (figure missing)): 86% | IL-4 in BAL fluid [3, 6]: 42.4 ± 4.9 pg/mL | IL-5 in BAL fluid [3, 6]: 53.4 ± 2.2 pg/mL | IFN-γ in BAL fluid [3, 6]: 425.1 ± 54.0 pg/mL | IFN-γ:IL-4 ratio in BAL fluid [3, 6]: 10 | IL-4 in BAL fluid [3, 7]: 91.0 ± 13.2 pg/mL | IL-5 in BAL fluid [3, 7]: 75.1 ± 7.4 pg/mL | IFN-γ in BAL fluid [3, 7]: 402 ± 14.4 pg/mL | IFN-γ:IL-4 ratio in BAL fluid [3, 7]: 4.4 | MCh PD35, of its initial values ([4]; preventive: treatment during sensitization, 10 mg/kg body weight): 115% | MCh PD35 recovery, of its initial levels ([4]; preventive: treatment during sensitization, dose 'mg/kg body weight' (figure missing), 24 hours after last ova challenge): 93% | MCh PD35 recovered, of the basal value ([4]; therapeutic: oral to sensitized mice already having airway hyper reactivity, 1 mg/kg body weight): over 81% | MCh PD35 recovery, of the basal value ([4]; therapeutic: oral to sensitized mice already having airway hyper reactivity, 10 mg/kg body weight): 94% | serum IgE levels, effect of higher dose ([5]; preventive: 10 mg of PBPB/kg body weight during sensitization): did not show additional effect | mean serum IgE level lower compared to sensitized animals ([5]; preventive: oral 1 mg/kg body weight during sensitization, sensitized mice 384±22.8 ng/ml): 40% | fall in serum IgE levels compared to vehicle treated sensitized mice ([5]; therapeutic: 1 mg/kg body weight fed for one week to already sensitized mice, p<0.05): 47%
